{"source": "patent US20260130917A1", "about": "“ANTIVIRAL COMPOSITION FOR CORONAVIRUS OR INFLUENZA VIRUS, USING NATURAL PRODUCTS, AND USE THEREOF” (priority 2022, published 2026)", "test_system": "SARS-CoV-2 variants: Ancestral (lineage A), Alpha (B.1.1.7), Beta (B.1.351), Gamma (P.1), Delta (B.1.617.2), Omicron (B.1.1.529)", "format": "cell-based"}
{"molecule": "CCCCCOc1cccc(/C=C/C23N=C(O)CCN2c2ccccc2C3(C)C)c1", "note": "(stereo not shown) [MolPort-005-980-235, 10,10-dimethyl-10a-[(1E)-2-[3-(pentyloxy)phenyl]ethenyl]-3H,4H,10H,10aH-pyrimido[1,2-a]indol-2-ol]", "values": [{"measurement": "antiviral activity against SARS-CoV-2 variants", "value": "had antiviral activity against all verified SARS-CoV-2 variants, including Omicron, in a dose-dependent manner"}]}
